In ChEMBL document CHEMBL1201862, “PubChem BioAssay data set” (2004):
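Interpolation was linear, between the two tested concentrations surrounding the appropriate level; five concentrations were tested over 48 hours in 96-well plates. GI50 is the concentration that inhibits growth by half.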 Active and inactive are the calls of the source. Cut-off read from the data, not from the text of the source: active = GI50 up to about 1.1 µM and inactive = higher.

Columns and labels:
Assay in all cases: NCI tumour cell line growth inhibition, 48 h
HCT-116 = system: HCT-116
HOP-92 = system: HOP-92
XF498 = system: XF498
KM-20L2 = system: KM-20L2
DLD-1 = system: DLD-1
SNB-75 = system: SNB-75
OVCAR-5 = system: OVCAR-5
SK-MEL-5 = system: SK-MEL-5
M14 = system: M14
KM12 = system: KM12
SF-539 = system: SF-539
HL-60 = system: HL-60
UO-31 = system: UO-31
IGROV-1 = system: IGROV-1
DMS-114 = system: DMS-114
OVCAR-8 = system: OVCAR-8
SK-MEL-28 = system: SK-MEL-28
NCI-H23 = system: NCI-H23
ACHN = system: ACHN
UACC-257 = system: UACC-257
SW-620 = system: SW-620
Malme-3M = system: Malme-3M
LOX IMVI = system: LOX IMVI
SNB-78 = system: SNB-78
SF-268 = system: SF-268
NCI-H226 = system: NCI-H226
CAKI-1 = system: CAKI-1
SK-MEL-2 = system: SK-MEL-2
MOLT-4 = system: MOLT-4
HOP-62 = system: HOP-62
HT-29 = system: HT-29
LXFL 529 = system: LXFL 529
TK-10 = system: TK-10
NCI-H460 = system: NCI-H460
EKVX = system: EKVX
SNB-19 = system: SNB-19
OVCAR-4 = system: OVCAR-4
SK-OV-3 = system: SK-OV-3
SN12C = system: SN12C
CCRF-CEM = system: CCRF-CEM
DMS-273 = system: DMS-273
U-251 = system: U-251
M19-MEL = system: M19-MEL
SF-295 = system: SF-295
HCC 2998 = system: HCC 2998
786-0 = system: 786-0
HCT-15 = system: HCT-15
NCI-H522 = system: NCI-H522
K562 = system: K562
SR = system: SR
UACC-62 = system: UACC-62
COLO 205 = system: COLO 205
OVCAR-3 = system: OVCAR-3
A549 = system: A549
A498 = system: A498
HOP-18 = system: HOP-18
RPMI-8226 = system: RPMI-8226
RXF 393 = system: RXF 393

Measured: GI50

Oc1ncnc2c1sc(=S)n2-c1ccccc1
> 100 µM: HCT-15
inactive: HCT-116 > 100 µM | HOP-92 70.3 µM | XF498 > 100 µM | KM-20L2 > 100 µM | DLD-1 > 100 µM | SNB-75 > 100 µM | OVCAR-5 > 100 µM | SK-MEL-5 > 100 µM | M14 > 100 µM | KM12 > 100 µM | SF-539 > 100 µM | HL-60 > 100 µM | UO-31 74.6 µM | IGROV-1 > 100 µM | DMS-114 > 100 µM | OVCAR-8 > 100 µM | SK-MEL-28 > 100 µM | NCI-H23 > 100 µM | ACHN > 100 µM | UACC-257 > 100 µM | SW-620 > 100 µM | Malme-3M > 100 µM | LOX IMVI > 100 µM | SNB-78 > 100 µM | SF-268 > 100 µM | NCI-H226 > 100 µM | CAKI-1 > 100 µM | SK-MEL-2 > 100 µM | MOLT-4 > 100 µM | HOP-62 > 100 µM | HT-29 > 100 µM | LXFL 529 > 100 µM | TK-10 > 100 µM | NCI-H460 > 100 µM | EKVX > 100 µM | SNB-19 > 100 µM | OVCAR-4 > 100 µM | SK-OV-3 > 100 µM | SN12C > 100 µM | CCRF-CEM > 100 µM | DMS-273 > 100 µM | U-251 > 100 µM | M19-MEL > 100 µM | SF-295 > 100 µM | HCC 2998 > 100 µM | 786-0 > 100 µM | NCI-H522 > 100 µM | K562 > 100 µM | SR > 100 µM | UACC-62 > 100 µM | COLO 205 > 100 µM | OVCAR-3 > 100 µM | A549 > 100 µM | A498 94.8 µM

CC(C)(C)/N=C\N1CCC(C(c2ccccc2)c2ccccc2)CC1
55.3 µM: HCT-15
inactive: HCT-116 50 µM | HOP-92 31.7 µM | XF498 30.8 µM | HOP-18 53.2 µM | KM-20L2 14.9 µM | DLD-1 > 100 µM | SNB-75 21.9 µM | OVCAR-5 54.2 µM | SK-MEL-5 67 µM | KM12 65.8 µM | SF-539 78.7 µM | IGROV-1 > 100 µM | DMS-114 72.1 µM | OVCAR-8 > 100 µM | SK-MEL-28 43.4 µM | NCI-H23 > 100 µM | ACHN 82.4 µM | UACC-257 37.3 µM | SW-620 > 100 µM | Malme-3M 18.2 µM | LOX IMVI 23.8 µM | SNB-78 64.6 µM | SF-268 49.8 µM | CAKI-1 42.4 µM | SK-MEL-2 > 100 µM | HOP-62 > 100 µM | HT-29 21.6 µM | TK-10 40.6 µM | NCI-H460 87.7 µM | EKVX > 100 µM | SNB-19 > 100 µM | OVCAR-4 46.8 µM | SN12C 78.3 µM | DMS-273 65.3 µM | U-251 60.4 µM | RPMI-8226 45.2 µM | M19-MEL 37.2 µM | SF-295 > 100 µM | 786-0 > 100 µM | RXF 393 22.9 µM | K562 35.1 µM | UACC-62 35.7 µM | COLO 205 19.1 µM | OVCAR-3 80.5 µM | A549 98.4 µM | A498 38.3 µM
